Measured values reported in patent publication US7220587B2 (priority 2001, dated 2007).

Assays:
[1] = tested on: ein6/een mutant seedlings; test: taxol treatment of dark-grown ein6/een double mutant seedlings; assay type: in vivo, Arabidopsis thaliana
Text: (§1) The role of ethylene in the reduction of hypocotyl and root elongation has not yet been elucidated. One possibility relates to the theory that cortical microtubules associated with the plasma membrane may direct the cellulose synthase complex that is responsible for cell wall deposition. The drug taxol acts to stabilize microtubules by inhibiting microtubule depolymerization (Schiff and Horwitz 1981) and may inhibit the shift in cortical microtubules upon ethylene treatment,(Heinstein and Chang 1994). To determine if taxol could affect the ethylene insensitivity phenotype of ein6/een mutants, wild-type and ein6/een mutants were given a 10 day taxol treatment in the dark (Example 12).
(§2) Wild-type Landsberg seedlings or ein6/een mutant seedlings were grown in the presence of either 0 μM, 0.1 μM, or 1 μM taxol for 10 days in the dark, following the method of Roman and Ecker (Phil. Trans. R. Soc. Lond. B. 350: 75–81, 1995, which is herein incorporated by reference in its entirety). […] Hypocotyl cells of the taxol-treated tissue appeared shorter and rounder than wild-type cells. […] From these observations, it has been concluded that the ein6/een double mutation, (or possibly the een single mutation) is responsible for the taxol sensitivity phenotype.

[2] = tested on: Wild-type Landsberg seedlings; test: taxol treatment of dark-grown wild-type seedlings; assay type: in vivo, Arabidopsis thaliana; conditions: 10 days in the dark
Text: as §1, §2

`CC(=O)O[C@H]1C(=O)[C@@]2(C)[C@H]([C@H](OC(=O)c3ccccc3)[C@]3(O)C[C@H](OC(=O)[C@H](O)[C@@H](NC(=O)c4ccccc4)c4ccccc4)C(C)=C1C3(C)C)[C@]1(OC(C)=O)CO[C@@H]1C[C@@H]2O` [taxol] was tested, and the “seedling phenotype (length)” value ([1]; 0.1 μM taxol, 10 days in the dark) was “shortened phenotype”, the “seedling length compared to non-treated ein6/een mutant seedlings” value ([1]; 1 μM taxol, 10 days in the dark) was “significantly shorter” and the “sensitivity of mutants to taxol” value ([1]; low levels (0.1 μM) of taxol, 10 day treatment in the dark) was “especially sensitive”. The “seedling size compared to untreated seedlings” value ([2]; 0.1 μM taxol) was “did not have an altered size” and the “effect on seedling elongation” value ([2]; 1 μM taxol) was “inhibition of elongation”.
